The text below walks through data of patent US20250011330A1, “Imidazo[1,2- a]pyrazine and Imidazo[1,2- a]pyridine Based Tyrosyl-DNA Phosphodiesterase I (TDP1) Inhibitors” (The USA, As Represented by the Secretary, Department of …, priority 2021, published 2025).

Read-outs that look alike come from different tables or passages of the source.

The term IC50 denotes the concentration needed to halve the response being measured. Usually inhibition stands for the change of the read-out against control, counted positive when it falls. High values mean strong suppression, low ones little suppression.

Test [1] concerns human colon cancer cell line HCT116. As to the kind of experiment: Synergistic effect with camptothecin (CPT) based on cell viability. As to conditions: list in description. Here is the method: The synergistic effects of the TDP1 inhibitors with CPT were tested in human colon cancer cell line HCT116 based on cell viability (Table 3, FIGS. 2-5). Cells were first seeded in a 384-well black-clear plate until 30% confluency and then incubated with a serial dilution of CPT at the range of 0-100 nM in the present or the absence of TDP1 inhibitors for 72 h at 37° C. Viable cell numbers were counted from the brightfield images taken by Biotek Cytation 5 (FIGS. 2-3). Fractional affect (Fa) and combination index (Ci) were analyzed with CompuSyn software. Synergistic scores of each TDP1 inhibitors were calculated and collected based on the data analysis from SynergyFinder (FIG. 4). […]

Test [2] has as its target T1, TDP1 (Homo sapiens (Human), UniProt Q9NUW8). The experiment in a line: TDP1 gel-based in vitro fluorescence assay. Type of test: biochemical. To be noted: for IC50: read-out: TDP1 IC50.
The target of test [3] is T2, TDP2 (Homo sapiens (Human), UniProt O95551). The experiment in a line: TDP2 degrading activity as stated in the description. As to conditions: list in description.
T2 sequence (O95551 whole entry, species assumed): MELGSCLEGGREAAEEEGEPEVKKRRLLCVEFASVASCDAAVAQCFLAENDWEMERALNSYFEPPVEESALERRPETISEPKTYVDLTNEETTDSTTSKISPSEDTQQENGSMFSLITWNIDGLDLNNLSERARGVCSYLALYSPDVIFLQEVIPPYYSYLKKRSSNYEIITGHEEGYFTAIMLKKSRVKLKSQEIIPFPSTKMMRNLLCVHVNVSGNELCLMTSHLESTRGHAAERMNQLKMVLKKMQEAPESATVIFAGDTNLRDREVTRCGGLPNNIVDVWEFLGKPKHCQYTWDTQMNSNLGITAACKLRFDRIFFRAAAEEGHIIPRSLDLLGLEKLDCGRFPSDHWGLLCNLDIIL
Test [4] concerns the target T1, TDP1. As to the kind of experiment: Degradation assay (western blotting) of TDP1 in HCT116 and HEK293 cells. The test is classed as cell-based. To be noted: list in description. Here is the method:
The degradation effect of the TDP1 inhibitors on TDP1 in human colon cancer cell line HCT116 and embryonic kidney cell line HEK293 were studied. Cells were first seeded in a 6-well plate until 60-80% confluency and then incubated with a serial dilution of TDP1 inhibitors at the range of 25-200 μM for 24-72 h at 37° C. […] Samples were then sonicated at 30% for 10 s and centrifuged for 15 min at 15000 rpm at 4 Celsius. Supernatant were collected and the concentration of total protein were measured by BCA Protein Assay Kit according to its protocols. Four micrograms of total protein for each sample were loaded and TDP1 level were conducted by western blotting.
For orientation: Immunoblotting shows a protein as a band on a membrane.

Test [5] deals with T2, TDP2. The experiment in a line: gel-based TDP2 fluorescence assay in vitro. Type of test: biochemical. As to conditions: read-out: TDP2 IC50.
The next test concerns the target TOP1 (Homo sapiens (Human), UniProt P11387). As to the kind of experiment: Degradation of TOP1 in cells (western blotting). Type of test: cell-based. To be noted: list in description.
For test [6], the target named is T1, TDP1. The experiment in a line: gel-based TDP1 fluorescence assay of unpurified oxime libraries at 100 μM. The test is classed as biochemical. To be noted: 100 μM in DMSO, oximes without purification. On the procedure: The oximes were evaluated by gel-based TDP1 fluorescence assay in a concentration of 100 μM in DMSO. The fluorescence of DMSO blank vial was set as 0 and the fluorescence for the reference without TDP1 was set as 100%. Preparation: A mixture of aminooxy-containing 105 or 106 (10 μL, 30 mM in DMSO), aldehydes M1-T12 (10 μL, 30 mM in DMSO) and acetic acid (10 μL, 150 mM in DMSO) were agitated at room temperature overnight. Oximes 5-M1-T12 or 6-M1-T12 (30 uL, 10 mM in DMSO) were afforded.
Two set of oximes 105-X and 106-Y (XZ700-M1-T12, XZ699-M1-T12) ([…], 10 mM in DMSO) were prepared about 240 each starting from aminooxy-containing 105 (XZ700) or 106 (XZ699) based on the following method. A mixture of aminooxy-containing 105 or 106 (10 μL, 30 mM in DMSO) with about 240 aldehydes M1-T12 (10 μL, 30 mM in DMSO) (Table 4) separately in the present of acetic acid (10 μL, 150 mM in DMSO) were agitated at room temperature overnight in three 96-well plates in parallel. The formed oximes 105-M1 to 105-T12 and 106-M1 to 106-T12 (30 uL, 10 mM in DMSO) were diluted to 100 μM in DMSO and evaluated by gel-based TDP1 fluorescence assay. The fluorescence of the gel band of DMSO blank vial was set as 0 and the fluorescence for the reference gel band without TDP1 was set as 100%. […] Among them, with same aldehyde structures D1 and P3, both oximes 105-series (105-D1, 105-P3) and 106-series (106-D1, 106-P3) show great (>90%) TDP1 inhibition. […] To confirm the inhibitions, we have further evaluated the purified lead oximes by HPLC. (Table 7; FIG. 9)

The mark [7] stands for this setting: Table 8, lead compounds with different linkers.
[8] abbreviates: Table 8, ratio of IC50 TDP2 to TDP1.

T1 sequence (Q9NUW8 whole entry): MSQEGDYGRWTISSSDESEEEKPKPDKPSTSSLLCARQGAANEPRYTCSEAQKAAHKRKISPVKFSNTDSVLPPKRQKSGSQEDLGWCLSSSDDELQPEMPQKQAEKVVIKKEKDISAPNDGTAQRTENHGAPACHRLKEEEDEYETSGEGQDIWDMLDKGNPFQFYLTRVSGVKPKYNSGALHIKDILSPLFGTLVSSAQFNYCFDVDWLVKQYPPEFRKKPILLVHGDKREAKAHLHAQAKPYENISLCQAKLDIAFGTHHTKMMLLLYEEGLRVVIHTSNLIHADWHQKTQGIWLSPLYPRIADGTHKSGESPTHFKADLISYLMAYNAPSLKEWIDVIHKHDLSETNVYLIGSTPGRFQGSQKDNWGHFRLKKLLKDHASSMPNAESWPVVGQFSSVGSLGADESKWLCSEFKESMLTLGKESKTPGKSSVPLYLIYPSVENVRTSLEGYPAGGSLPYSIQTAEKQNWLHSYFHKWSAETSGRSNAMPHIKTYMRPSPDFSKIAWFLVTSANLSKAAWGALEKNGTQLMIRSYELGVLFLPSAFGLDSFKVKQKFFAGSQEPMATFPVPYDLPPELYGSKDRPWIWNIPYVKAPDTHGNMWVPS

`N#Cc1ccc(-c2ccc(Cn3cc(-c4ccc(-c5nc6cc(-c7ccccc7)ccn6c5Nc5ccc(C(=O)O)cc5)cc4)nn3)cc2)nc1` [XZ718, 4-((2-(4-(1-(4-(5-Cyanopyridin-2-yl)benzyl)-1H-1,2,3-triazol-4-yl)phenyl)-7-phenylimidazo[1,2-a]pyridin-3-yl)amino)benzoic acid]: the synergy with camptothecin entry in test [1] was “exhibit synergy with camptothecin”. Moreover, the IC50 at TDP1 [2] (setting [7]) was found to be 3.1 ± 0.2 µM; at TDP2 [5] (setting [7]) it was 25.9 ± 0.4 µM. Also, the “FC (fold change)” value at TDP1 [2] (setting [8]) was 8. On TDP2 [3], the TDP2 degrading activity entry was “exhibit TDP2 degrading activity”. Also, at TDP1 [4], the TDP1 degrading activity result is “exhibit TDP1 degrading activity”. The TOP1 degrading activity entry at TOP1 was “exhibit TOP1 degrading activity”.

In the case of `O=C(O)c1ccc(Nc2c(-c3ccc(CON=Cc4ccc(N5CCCC5=O)cc4)cc3)nc3cc(-c4ccccc4)ccn23)cc1` [Compound 106-B7, 4-((2-(4-((((4-(2-oxopyrrolidin-1-yl)benzylidene)amino)oxy)methyl)phenyl)-7-phenylimidazo[1,2-a]pyridin-3-yl)amino)benzoic acid], at TDP1 [6], the TDP1 inhibition result is “good inhibition”.

The compound `Cc1cncc(Oc2ccc(C=NOCc3ccc(-c4nc5cc(-c6ccccc6)ccn5c4Nc4ccc(C(=O)O)cc4)cc3)cc2)n1` [Compound 106-P3, 4-((2-(4-((((4-((6-methylpyrazin-2-yl)oxy)benzylidene)amino)oxy)methyl)phenyl)-7-phenylimidazo[1,2-a]pyridin-3-yl)amino)benzoic acid] gave an inhibition at 100 µM against TDP1 [6] of over 90%.

For the compound `N#Cc1ccc(-c2ccc(C=NOCc3ccc4nc(-c5ccccc5)c(Nc5ccc(C(=O)O)cc5)n4c3)cc2)nc1` [Compound 105-D1, 4-((6-((((4-(5-cyanopyridin-2-yl)benzylidene)amino)oxy)methyl)-2-phenylimidazo[1,2-a]pyridin-3-yl)amino)benzoic acid], at TDP1 [6], the inhibition at 100 µM is over 90%.

With `N#Cc1ccc(-c2ccc(/C=N/OCc3ccc(-c4nc5cc(-c6ccccc6)ccn5c4Nc4ccc(C(=O)O)cc4)cc3)cc2)nc1` [XZ701, (E)-4-((2-(4-((((4-(5-Cyanopyridin-2-yl)benzylidene)amino)oxy)methyl)phenyl)-7-phenylimidazo[1,2-a]pyridin-3-yl)amino)benzoic acid], the synergy with camptothecin entry in test [1] is recorded as “exhibit synergy with camptothecin”. For the same compound, the “selectivity against TDP1 than against TDP2” value at TDP1 [2] is listed as 74 fold. The “FC (fold change)” value on TDP1 [2] (Table 7, ratio of IC50 TDP2 to TDP1) turned out to be 74. Besides, the IC50 at TDP1 [2] (setting [7]) worked out at 0.38 ± 0.06 µM; on TDP1 [2] (purified oximes and SMM leads) it was 0.38 ± 0.06 µM; at TDP2 [5] (Table 7, HPLC-purified oxime leads), 28.1 ± 8.9 µM. Also, at TDP1 [2] (fold more than SMM lead 3), the “TDP1 inhibition relative to SMM lead 3” value is listed as 10 fold. Moreover, at TDP2 [3], the TDP2 degrading activity result was “exhibit TDP2 degrading activity”. The TDP1 degrading activity result on TDP1 [4] is “exhibit TDP1 degrading activity”. The TOP1 degrading activity entry on TOP1 is “exhibit TOP1 degrading activity”.

For the compound `Cc1cncc(Oc2ccc(C=NOCc3ccc4nc(-c5ccccc5)c(Nc5ccc(C(=O)O)cc5)n4c3)cc2)n1` [Compound 105-P3, 4-((6-((((4-((6-methylpyrazin-2-yl)oxy)benzylidene)amino)oxy)methyl)-2-phenylimidazo[1,2-a]pyridin-3-yl)amino)benzoic acid], the IC50 on TDP1 [2] (purified oximes and SMM leads) was over 100 µM. The compound also registered an inhibition at 100 µM against TDP1 [6] of over 90%.

Take `O=C(O)c1ccc(Nc2c(-c3ccc(CON=Cc4ccc(-c5ccccc5)cc4)cc3)nc3cc(-c4ccccc4)ccn23)cc1` [Compound 106-M10, 4-((2-(4-(((([1,1′-biphenyl]-4-ylmethylene)amino)oxy)methyl)phenyl)-7-phenylimidazo[1,2-a]pyridin-3-yl)amino)benzoic acid]: the TDP1 inhibition entry on TDP1 [6] is on record as “poor inhibition”.

With `O=C(O)c1ccc(Nc2c(-c3ccc(CON=Cc4ccc(-c5cnccn5)cc4)cc3)nc3cc(-c4ccccc4)ccn23)cc1` [Compound 106-E6, 4-((7-phenyl-2-(4-((((4-(pyrazin-2-yl)benzylidene)amino)oxy)methyl)phenyl)imidazo[1,2-a]pyridin-3-yl)amino)benzoic acid], the TDP1 inhibition entry at TDP1 [6] was “good inhibition”.

As for “4-((2-(4-(2-((4-(5-((λ^2-Azaneylidene)-λ^3-methyl)pyridin-2-yl)phenyl)methoxy)ethyl)phenyl)-7-phenylimidazo[1,2-a]pyridin-3-yl)amino)benzoic acid [XZ726]”, in test [1], the synergy with camptothecin result is reported as “exhibit synergy with camptothecin”. Besides, the IC50 on TDP2 [5] (setting [7]) was over 100 µM. Further, the TOP1 degrading activity entry at TOP1 was “exhibit TOP1 degrading activity”.

In the case of `Cc1ncsc1-c1ccc(CNC(=O)[C@@H]2C[C@@H](O)CN2C(=O)[C@@H](NC(=O)COCCOCCn2cc(COc3ccc(-c4nc5cc(-c6ccccc6)ccn5c4Nc4ccc(C(=O)O)cc4)cc3)nn2)C(C)(C)C)cc1` [XZ679, 4-((2-(4-((1-(2-(2-(2-(((S)-1-((2S,4R)-4-Hydroxy-2-((4-(4-methylthiazol-5-yl)benzyl)carbamoyl)pyrrolidin-1-yl)-3,3-dimethyl-1-oxobutan-2-yl)amino)-2-oxoethoxy)ethoxy)ethyl)-1H-1,2,3-triazol-4-yl)methoxy)phenyl)-7-phenylimidazo[1,2-a]pyridin-3-yl)amino)benzoic acid], the TDP1 degrading activity entry at TDP1 [4] is “exhibit TDP1 degrading activity”. Moreover, at TDP2 [5] (Table 10, PROTACs), the concentration for half-maximal inhibition (IC50) was over 100 µM. The TOP1 degrading activity result on TOP1 is “exhibit TOP1 degrading activity”.

Turning to `N#Cc1ccc(-c2ccc(C=NOCc3ccc(-c4nc5cc(-c6ccccc6)ccn5c4Nc4ccc(C(=O)O)cc4)cc3)cc2)nc1` [Compound 106-D1, 4-((2-(4-((((4-(5-cyanopyridin-2-yl)benzylidene)amino)oxy)methyl)phenyl)-7-phenylimidazo[1,2-a]pyridin-3-yl)amino)benzoic acid], at TDP1 [6], the inhibition at 100 µM is over 90%.

As for `N#Cc1ccc(-c2ccc(Cn3cc(-c4ccn5c(Nc6ccc(C(=O)O)cc6)c(-c6ccccc6)nc5c4)nn3)cc2)nc1` [XZ722, 4-((7-(1-(4-(5-Cyanopyridin-2-yl)benzyl)-1H-1,2,3-triazol-4-yl)-2-phenylimidazo[1,2-a]pyridin-3-yl)amino)benzoic acid], the results for the IC50 at TDP1 [2] (setting [7]) and at TDP2 [5] (setting [7]) were 5.95 ± 1.25 µM and 18 ± 1.2 µM, respectively. Besides, at TDP1 [2] (setting [8]), the “FC (fold change)” value is 3. For the same compound, the TDP2 degrading activity entry at TDP2 [3] is “exhibit TDP2 degrading activity”. Also, the TDP1 degrading activity entry at TDP1 [4] is given as “exhibit TDP1 degrading activity”. On TOP1, the TOP1 degrading activity entry is “exhibit TOP1 degrading activity”.

With `N#Cc1ccc(-c2ccc(Cn3cc(COc4ccc(-c5nc6cc(-c7ccccc7)ccn6c5Nc5ccc(C(=O)O)cc5)cc4)nn3)cc2)nc1` [XZ720, 4-((2-(4-((1-(4-(5-Cyanopyridin-2-yl)benzyl)-1H-1,2,3-triazol-4-yl)methoxy)phenyl)-7-phenylimidazo[1,2-a]pyridin-3-yl)amino)benzoic acid], the synergy with camptothecin entry in test [1] is “exhibit synergy with camptothecin”. The IC50 at TDP1 [2] (setting [7]) was determined as 23.5 ± 3.2 µM; on TDP2 [5] (setting [7]), 32.9 ± 2.7 µM. Moreover, the “FC (fold change)” value on TDP1 [2] (setting [8]) turned out to be 1. For the same compound, the TDP2 degrading activity result on TDP2 [3] is on record as “exhibit TDP2 degrading activity”. On TDP1 [4], the TDP1 degrading activity entry was “exhibit TDP1 degrading activity”. Moreover, at TOP1, the TOP1 degrading activity entry is recorded as “exhibit TOP1 degrading activity”.
